Results from patent US9844522B2 (LIFE & BRAIN GMBH, priority 2012, dated 2017).
“Also recorded” adds a separate entry of the source. Where two headings read alike, the source gives them in different places.

What was measured:
pGBMs [1] = test: Combinatorial pharmacodynamics niclosamide and TMZ (alamarBlue); format: cell-based; details: Homo sapiens; 50 μM TMZ alone, pGBMs n=7, triplicate; read-out: Metabolic activity, % of control levels
Procedure: (§1) For pharmacodynamic analysis, 5×10^4 cells were plated in 12-well-plates at 24 hours before application of compound-series and compound combinations, respectively. alamarBlue®-based analysis was conducted at 3-5 days post treatment. Experiments were performed in triplicates. IMC50 was defined as the compound concentration that reduced the metabolic activity by 50% compared to control conditions and determined via data analysis in GraphPad Prism 4.0.

standard GBM cell lines = test: as above; format: cell-based; details: Homo sapiens; 50 μM TMZ alone, GBMs (standard cell lines); read-out: Metabolic activity, % of control levels
Procedure: as §1

[2] = system: pGBM #GNV019 grafts in Scid Beige mice; test: Orthotopic tumor xenograft of pre-treated cells; format: in vivo; details: niclosamide pre-treated #GNV019 cells, single exposure, n=6
pGBMs [3] = test: Annexin V/Hoechst FACS analysis; format: cell-based, human; details: 5 days after application
[4] = system: glioma/GBM cell lines LN229, T98G, U87, U138, U373; test: Pharmacodynamic analysis (alamarBlue dose-response, IC50); format: cell-based, human; details: defined media (dm) conditions
Procedure: as §1

[5] = system: NF-κB-signaling (phospho-p65-NFκB protein); test: Western blot of phospho-p65-NFκB (phospho-RELA); format: cell-based, human
21 pGBMs = test: Pharmacodynamic analysis (alamarBlue dose-response, IC50); format: cell-based; details: Homo sapiens, 120 h
Procedure: as §1

[6] = system: pGBM #046 grafts in Rag2Il2rg−/− mice; test: Orthotopic tumor xenograft of pre-treated cells; format: in vivo; details: niclosamide pre-treated #046 pGBMs, n=5
pGBMs [7] = test: Proliferation kinetics / long-term cell growth (CellaVista); format: cell-based, human
[8] = system: phospho-β-catenin (Ser552); test: Immunofluorescence of nuclear phospho-β-catenin (Ser552); format: cell-based, human; details: pGBMs
Text: (§2) It is known that a circumscribed number of transcription factors and associated signaling pathways are overactive in human cancer cells (21). […] Characteristic for the active state of this mechanism, known to play an important role for tumor invasion, is an enhanced nuclear accumulation of β-catenin, phosphorylated at Ser^552 (26).

[9] = system: Notch pathway (cleaved Notch 1-protein); test: Western blot of cleaved Notch 1; format: cell-based, human; details: day 5 after single-dose exposure, 4 pGBMs
Procedure: (§3) Cell extracts were prepared at 24 to 144 hours following compound application and processed as described (49). Blot membranes were incubated overnight at 4° C. with antibodies against Cyclin-D1 (1:1000; BD Pharmingen), cleaved-Notch1 (1:1000), or phospho-S6 protein (1:1000; all Cell signaling) respectively. After washing, peroxidase-coupled secondary antibodies (Santa Cruz) were added for 1 hour. After washing, blots were developed using the ECL system (Millipore).
as §2

pGBMs [10] = test: Cell migration analysis (scratch assay); format: cell-based, human; details: sub-toxic concentrations, 125 nM
Procedure: 5×10^4 cells were plated into 12-well-plates coated with laminin/poly-L-ornithine. […] Three days after plating (at a cell density of 70%), a scratch/wound was inflicted with a sterile pipette tip. Thereafter, culture media was exchanged to remove non-adherent cells. The Plaque Assay application of the CellaVista® system (Roche Diagnostics) was used according to the manufacturer's instructions to monitor the scratch/wound size over time. Triplicate analysis data±SEM.

[11] = system: pGBMs (primary glioblastoma cells); test: Primary drug screening, alamarBlue metabolic activity; format: cell-based, human; details: for Metabolic activity in % of the activity of a control without niclosamide: triplicate
Procedure: (§4) The tested compounds were supplied to cells proliferating in a linear-exponential phase. For all used cell samples, respective titration experiments were conducted before analysis. 24 hours after seeding 2-3×10^3 cells/well into laminin/poly-L-ornithine coated 96-well plates, cells were treated with 1 μM of each compound (stock solution 10 mM in DMSO). Control cells were treated with 0.01-0.1% DMSO. Five days after application, metabolic activity as a measure of cell viability was determined using the alamarBlue® assay according to the manufacturers recommendations (Life Technologies). Fluorescence was measured using an Infinite200 microplate reader (Tecan) at λex=540 nm and λem=590 nm. Experiments were performed in triplicates for each sample.
(§5) A library comprising of 160 synthetic and natural toxic substances was used for the screening approach. Four pGBMs, previously shown to maintain patient- and GBM-specific signatures and to contain sub-populations of tumor cells with and without stem cell qualities served as a discovery platform (#'s 023, 035, 046, 106; see (10)). Primary screening was conducted based on the alamarBlue® assay determining the metabolic activity as a measure for cellular viability at day 5 following single application of the library's compounds. In the experiments, every compound that reduced the mean metabolic activity of the 4 pGBMs below 50% of control levels was considered as a ‘hit’.

U87 glioma cell line = test: as above; format: cell-based, human; details: 1 µM niclosamide for 5 days, triplicate
Procedure: as §4, §5

WNT/CTNNB1 target genes = test: qRT-PCR of β-catenin target genes; format: cell-based, human; details: pGBMs
Text: as §2

[12] = system: non-malignant hnNCs (human non-malignant neural cells); test: Pharmacodynamic analysis (alamarBlue dose-response); format: cell-based; details: three hnNCs, defined culture conditions
Procedure: as §1

[13] = system: self-renewing, multipotent cells among pGBMs; test: Neurosphere assay; format: cell-based, human; details: single application 1.5 μM, vital cells collected at day 5
[14] = system: #155 non-malignant primary adult human neural progenitor cells (AHNPs); test: Primary drug screening, alamarBlue metabolic activity; format: cell-based; details: control cells 155; 1 µM niclosamide for 5 days, triplicate
Procedure: as §4
A library comprising of 160 synthetic and natural toxic substances was used for the screening approach. Four pGBMs, previously shown to maintain patient- and GBM-specific signatures and to contain sub-populations of tumor cells with and without stem cell qualities served as a discovery platform (#'s 023, 035, 046, 106; see (10)). Primary screening was conducted based on the alamarBlue® assay determining the metabolic activity as a measure for cellular viability at day 5 following single application of the library's compounds. […]

[15] = system: mTOR signaling (phosphorylated S6-protein); test: Western blot of phospho-S6 protein; format: cell-based, human; details: day 5 after single-dose exposure, 4 pGBMs
Procedure: as §3, §2

NFKBIA = test: qRT-PCR of NFKBIA expression; format: cell-based, human; details: NFKBIA+/− pGBMs and standard GBM models under dm conditions
Text: On the other hand, it is known that the inhibition of NF-κB alone may not severely affect most solid tumors, rather that it may help to prevent resistance of cancer cells to chemotherapy (30, 31).

[16] = system: non-malignant human cell sample #155; test: Annexin V/Hoechst FACS analysis; format: cell-based; details: 5 days after application
Procedure: (B) CYCLIN D1 (CCND1)-western blot of cell extracts derived at this time point. […] Inset: mean data (n=5 pGBMs; **p<0.01). […] Right inset: representative scatter plots (#046). […] The graph exemplifies the time course of scratch closure for case #046 (mean±SD; triplicate analysis).
1×10^5 cells were collected at 5 days following compound application, settled by centrifugation, re-suspended in 100 μl AnnexinV buffer and incubated with 5 μl Annexin V-FITC for 1 hour at room temperature. To distinguish between living and dead cells, labeling with 1.2 μg/ml Hoechst 33258 was used Annexin V presence was determined using standard conditions in a LSRII equipped with FACSDiva Software (BD Bioscience). 2×10^4 cells were counted per measurement. The term ‘avital cells’ was used for Annexin V^+−, Annexin V^+/H33258^+, and H33258^+ cells.

[17] = studies in animals; cited from earlier work
[18] = system: hnNCs co-cultured with pGBMs; test: Co-culture of pGBMs and hnNCs; format: cell-based, human; details: dm conditions, niclosamide 1 μM
Cyclin D1 = test: Western blot of Cyclin D1; format: cell-based, human; details: 24 hours post application
Procedure: as §3

NFKBIA+/− pGBMs = test: Control study with NFκB activator in combinatorial treatment; format: cell-based, human; details: NFKBIA+/− genotypes; niclo 1 μM, temozolomide 50 μM, TNF-a 50 ng/ml, 3 days
Procedure: FIG. 16: TNF-a antagonizes synergistic activity in NFKBIA+/− pGBMs. Graphs present data from combinatorial treatment paradigms in NFKBIA+/− (black) versus NFKBIA+/+ (gray) pGBMs at 3 days after compound application (niclo, 1 μM; temozolomide, 50 μM; TNF-a, 50 ng/ml). Insets, Western blot analyses of pREL A, indicating NF-kB pathway activity 24 hours after exposure to TNF-a, (Ta; 50 ng/ml) or 0.002% bovine serum albumin (C; control). ***p<0.001; **p<0.01; *p<0.05 (triplicates; mean±SD; one-way ANOVA and Tukey post hoc tests).

With `Cn1nnc2c(C(N)=O)ncn2c1=O` [TMZ, temozolomide] the activity at 50 µM (pGBMs [1]) was 94 ± 4% and the activity at 50 µM (standard GBM cell lines) was 89 ± 8%.

In the case of `O=C(Nc1ccc([N+](=O)[O-])cc1Cl)c1cc(Cl)ccc1O` [niclosamide], the “Tumor forming capacity of grafted cells” value [2] is reported as “no animal that received niclosamide pre-treated grafts showed evidence for tumor formation; also recorded: completely extinguished the tumor forming capacity”, the “Vital cells (pro-apoptotic effect)” value (pGBMs [3]) is reported as “strong and pGBM-selective decrease of vital cells” and the “Niclosamide effects on standard GBM model cell lines under dm conditions” value [4] is reported as “highly similar to findings obtained from pGBMs”. The “NF-κB pathway (phospho-p65-NFκB protein levels)” value ([5]; pGBMs #046 and #078 (NFKBIA+/−) only, of four cases) was “pathway inhibition”, the IC50 (21 pGBMs; day 5, read-out: IC50 (50% reduction of relative metabolic activity), lower end of range over 21 pGBMs) was at least 300 nM and the IC50 (21 pGBMs; day 5, read-out: IC50 (50% reduction of relative metabolic activity), upper end of range over 21 pGBMs) was at most 1200 nM. The “Time after engraftment at which tumors developed / animals distressed” value ([6]; 10^6 cells into striatum) was 153 ± 23 days, the “Animals with tumor development” value [6] was 4/5 and the “Delay of recovery of vital cells from cytostatic effects (long-term growth)” value (pGBMs [7]; single application 1.5 μM) was 14 to 23 days. For the same molecule, the Growth delay (pGBMs [7]; single exposure, 1.5 μM, pGBMs 046, 078, 106) was 5 days, the “Nuclear phospho-β-catenin (Ser552) antigen” value [8] was “strong decrease” and the “Notch pathway activity (cleaved Notch 1-protein levels)” value [9] was “concentration-dependent inhibition”. The “Effect on migration (scratch closure)” value (pGBMs [10]) was “anti-migratory effects”, the activity at 1 µM ([11]; Homo sapiens, 120 h, day 5 after single application, 1 μM of each compound, read-out: Mean metabolic activity of the 4 pGBMs, % of control levels ('hit' criterion)) was under 50% and the “Metabolic activity in % of the activity of a control without niclosamide, pGBMs average” value ([11]; average of pGBMs 023, 035, 046, 106, 1 µM niclosamide for 5 days) was 26.4%. For the same molecule, the “Metabolic activity in % of the activity of a control without niclosamide” value ([11]; pGBM 023, 1 µM niclosamide for 5 days) was 32.3%, the “Metabolic activity in % of the activity of a control without niclosamide” value ([11]; pGBM 035, 1 µM niclosamide for 5 days) was 5.6% and the “Metabolic activity in % of the activity of a control without niclosamide” value ([11]; pGBM 046, 1 µM niclosamide for 5 days) was 34.6%. The “Metabolic activity in % of the activity of a control without niclosamide” value ([11]; pGBM 106, 1 µM niclosamide for 5 days) was 33.0%, the “Metabolic activity in % of the activity of a control without niclosamide” value (U87 glioma cell line) was 66.5% and the “Expression of β-catenin target genes” value (WNT/CTNNB1 target genes) was “significantly decreased”. For the same molecule, the “Sensitivity of non-malignant hnNCs compared with pGBMs” value [12] was “significantly lower level of sensitivity”, the “Frequencies of self-renewing, multipotent (sphere-forming) cells” value [13] was “reduced the frequencies of self-renewing, multipotent cells among pGBMs strongly” and the “Metabolic activity in % of the activity of a control without niclosamide” value [14] was 75.4%. The “Levels of phosphorylated S6-protein” value [15] was “decrease in all samples”, the NFKBIA expression (NFKBIA) was “strongly up-regulate” and the “Pro-apoptotic effects in non-malignant cells” value [16] was “lack of pro-apoptotic effects”. The “Mutagenic, oncogenic, embryotoxic activity and cumulative effects” value [17] was “no mutagenic, oncogenic, or embryotoxic activity and no cumulative effects”, the “Sensitivity of hnNCs in co-culture with pGBMs” value [18] was “lower sensitivity of hnNCs can be confirmed” and the “Cyclin D1 expression” value (Cyclin D1) was “strong decrease”.

In the case of TNFα, the “NFκB activity in pGBMs” value ([5]; TNF-a 50 ng/ml, 24 hours) is reported as “activated NFκB” and the “Effect on niclosamide/TMZ synergy” value (NFKBIA+/− pGBMs) is reported as “counteracted synergy effects”.
